Test [1] has as its system cultured human mast cells (CHMC), IgE-induced degranulation. In words: CHMC low cell density IgE activation: tryptase assay. Format: cell-based. In short, it runs like this: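 Tryptase release read fluorogenically (30 min, room temperature) from supernatants of anti-IgE-challenged cultured human mucosal mast cells derived from umbilical cord CD34+ cells, at low density of 1000–1500 cells/well.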

For test [2], the system named is cultured human mast cells (CHMC), ionomycin-induced degranulation. In words: CHMC low cell density ionomycin activation: tryptase assay. As to conditions: ionomycin activation, 3pt, read-out: LD Tryptase, CHMC, Iono, 3pt. Format: cell-based.
Setting [3] is: low cell density CHMC, 3pt, read-out: LD Tryptase, CHMC, IgE, 3pt.
The mark [4] stands for this setting: low cell density CHMC, 8pt, read-out: LD Tryptase, CHMC, IgE, 8pt.
Setting [5] is: CHMC low cell density, 3pt, read-out: LD Tryptase, CHMC, IgE, 3pt.
The mark [6] stands for this setting: CHMC low cell density, 8pt, read-out: LD Tryptase, CHMC, IgE, 8pt.

Where two headings read alike, the source gives them in different places.

Regarding `CC1(C)COc2ccc(Nc3nc(Nc4cccc(-c5ncco5)c4)ncc3F)cc2N1` [Compound 218, N4-(3,4-Dihydro-3,3-dimethyl-2H,4H-benz[1,4]oxazin-6-yl)-5-fluoro-N2-[3-(oxazol-2-yl)phenyl]-2,4-pyrimidinediamine], the IC50 in test [1] (setting [3]) is < 10 µM; in test [1] (setting [4]), < 10 µM; in test [2] (low cell density CHMC) it was > 10 µM.
For the compound `Fc1cnc(Nc2ccc(-c3cnco3)cc2)nc1Nc1ccc2c(c1)NCCO2` [Compound 222, N4-(3,4-Dihydro-2H,4H-Benz[1,4]oxazin-6-yl)-5-fluoro-N2-[4-(oxazol-5-yl)phenyl]-2,4-pyrimidinediamine], the IC50 in test [1] (setting [3]) was < 10 µM; in test [1] (setting [4]), < 10 µM; in test [2] (low cell density CHMC) it was > 10 µM.
As to `CC1(C)COc2ccc(Nc3nc(Nc4ccc(-c5cnco5)cc4)ncc3F)cc2N1` [Compound 223, N4-(3,4-Dihydro-3,3-dimethyl-2H,4H-benz[1,4]oxazin-6-yl)-5-fluoro-N2-[4-(oxazol-5-yl)phenyl]-2,4-pyrimidinediamine], the results for the IC50 in test [1] (setting [3]), in test [1] (setting [4]) and in test [2] (low cell density CHMC) were < 10 µM, < 10 µM and > 10 µM, respectively.
As to `C[C@@H]1Oc2ccc(Nc3nc(Nc4ccc(-c5cnco5)cc4)ncc3F)cc2NC1=O` [Compound 225], the IC50 in test [1] (setting [3]) is < 10 µM; in test [1] (setting [4]), < 10 µM; in test [2] (low cell density CHMC), > 10 µM.
On to `Fc1cnc(Nc2cccc(-c3cnco3)c2)nc1Nc1ccc2c(c1)NCCO2` [Compound 232, N4-(3,4-Dihydro-2H,4H-benz[1,4]oxazin-6-yl)-5-fluoro-N2-[3-(oxazol-5-yl)phenyl]-2,4-pyrimidinediamine], for which the values for the IC50 in test [1] (setting [3]), in test [1] (setting [4]) and in test [2] (low cell density CHMC) were < 10 µM, < 10 µM and > 10 µM, respectively.
Consider `CC1(C)COc2ccc(Nc3nc(Nc4cccc(-c5cnco5)c4)ncc3F)cc2N1` [Compound 233, N4-(3,4-Dihydro-3,3-dimethyl-2H,4H-benz[1,4]oxazin-6-yl)-5-fluoro-N2-[3-(oxazol-5-yl)phenyl]-2,4-pyrimidinediamine], for which the figures for the IC50 in test [1] (setting [3]), in test [1] (setting [4]) and in test [2] (low cell density CHMC) were < 10 µM, < 10 µM and > 10 µM, respectively.
For the compound `CC1(C)COc2ccc(Nc3nc(Nc4ccc(-c5ncco5)cc4)ncc3F)cc2N1` [Compound 238, N4-(3,4-Dihydro-3,3-dimethyl-2H,4H-benz[1,4]oxazin-6-yl)-5-fluoro-N2-[4-(oxazol-2-yl)phenyl]-2,4-pyrimidinediamine], the IC50 was < 10 µM in test [1] (setting [3]), < 10 µM in test [1] (setting [4]) and > 10 µM in test [2] (low cell density CHMC).
Turning to `CN1CCOc2ccc(Nc3nc(Nc4ccc(-c5ncco5)cc4)ncc3F)cc21` [Compound 243, N4-(2,3-Dihydro-4-methyl-2H-benz[1,4]oxazin-6-yl)-5-fluoro-N2-[4-(oxazol-2-yl)phenyl]-2,4-pyrimidinediamine], the IC50 in test [1] (setting [3]) was < 10 µM; in test [1] (setting [4]), < 10 µM; in test [2] (low cell density CHMC), > 10 µM.
Consider `COc1cc(Nc2ncc(F)c(Nc3ccc4c(c3)NCC(CCO)O4)n2)cc(OC)c1` (centres unmarked) [Compound 253, N4-[3,4-Dihydro-2-(2-hydroxyethyl)-2H,4H-benz[1,4]oxazin-6-yl]-N2-(3,5-dimethoxyphenyl)-5-fluoro-2,4-pyrimidinediamine], for which the values for the IC50 in test [1] (setting [3]), in test [1] (setting [4]) and in test [2] (low cell density CHMC) were < 10 µM, < 10 µM and > 10 µM, respectively.
For `CNC(=O)COc1cccc(Nc2ncc(F)c(Nc3ccc4c(c3)NC(=O)CS4)n2)c1` [Compound 254, 5-Fluoro-N2-[3-(N-methylamino)carbonylmethyleneoxyphenyl]-N4-(3-oxo-2H,4H-benzo[1,4]thiazin-6-yl)-2,4-pyrimidinediamine], the IC50 in test [1] (setting [3]) was < 10 µM; in test [1] (setting [4]), < 10 µM; in test [2] (low cell density CHMC), > 10 µM.
As for `Cc1cc(C)cc(Nc2ncc(F)c(Nc3ccc4c(c3)NCC(CCO)O4)n2)c1` (centres unmarked) [Compound 255, N4-[2,3-Dihydro-2-(2-hydroxyethyl)-2H,4H-benz[1,4]oxazin-6-yl]-N2-(3,5-dimethylphenyl)-5-fluoro-2,4-pyrimidinediamine], the figures for the IC50 in test [1] (setting [3]), in test [1] (setting [4]) and in test [2] (low cell density CHMC) were < 10 µM, < 10 µM and > 10 µM, respectively.
In the case of `CNC(=O)COc1cccc(Nc2ncc(F)c(Nc3ccc4c(c3)NCCS4)n2)c1` [Compound 258, N4-(3,4-Dihydro-2H,4H-benzo[1,4]thiazin-6-yl)-5-fluoro-N2-[3-(N-methylamino)carbonylmethyleneoxyphenyl]-2,4-pyrimidinediamine], the IC50 in test [1] (setting [3]) is < 10 µM; in test [1] (setting [4]), < 10 µM; in test [2] (low cell density CHMC), > 10 µM.
For `CNC(=O)COc1cccc(Nc2ncc(F)c(Nc3ccc4c(c3)N(C)C(=O)CS4)n2)c1` [Compound 259, 5-Fluoro-N2-[3-(N-methylamino)carbonylmethyleneoxyphenyl]-N4-(4-methyl-3-oxo-2H-benzo[1,4]thiazin-6-yl)-2,4-pyrimidinediamine], the values for the IC50 in test [1] (setting [3]), in test [1] (setting [4]) and in test [2] (low cell density CHMC) were < 10 µM, < 10 µM and > 10 µM, respectively.
On to `NC(=S)c1cccc(Nc2ncc(F)c(Nc3ccc4c(c3)NC(=O)CO4)n2)c1` [Compound 261, N2-(3-Benzothioamide)-5-fluoro-N4-(3-oxo-2H,4H-benz[1,4]oxazin-6-yl)-2,4-pyrimidinediamine], for which the IC50 in test [1] (setting [3]) is < 10 µM; in test [2] (low cell density CHMC), > 10 µM.
Turning to `NC(=S)c1cccc(Nc2ncc(F)c(Nc3ccc4c(c3)NC(=O)C(CCO)O4)n2)c1` (centres unmarked) [Compound 262, N2-(3-Benzothioamide)-5-fluoro-N4-[2-(2-hydroxyethyl)-3-oxo-2H,4H-benz[1,4]oxazin-6-yl]-2,4-pyrimidinediamine], the IC50 is < 10 µM in test [1] (setting [3]) and > 10 µM in test [2] (low cell density CHMC).
`CNC(=O)COc1cccc(Nc2ncc(F)c(N(C)c3ccc4c(c3)OCCO4)n2)c1` [Compound 385, N4-(3,4-Ethylenedioxyphenyl)-5-fluoro-N4-methyl-N2-[3-(N-methylamino)carbonylmethyleneoxyphenyl]-2,4-pyrimidinediamine]: the figures for the IC50 in test [1] (setting [5]), in test [1] (setting [6]) and in test [2] (CHMC low cell density) were < 10 µM, < 10 µM and > 10 µM, respectively.
As to `CC(=O)N1CCN(c2cccc(Nc3ncc(F)c(Nc4ccc5c(c4)OC(F)(F)C(F)(F)O5)n3)c2)CC1` [Compound 431], the IC50 in test [1] (setting [5]) is < 10 µM; in test [1] (setting [6]), < 10 µM; in test [2] (CHMC low cell density), > 10 µM.
As for `CC(=O)N1CCN(c2ccc(Nc3ncc(F)c(Nc4ccc5c(c4)OC(F)(F)C(F)(F)O5)n3)cc2)CC1` [Compound 432], the IC50 in test [1] (setting [5]) is < 10 µM; in test [2] (CHMC low cell density), > 10 µM.
`CNC(=O)COc1cccc(Nc2ncc(F)c(N(CC(=O)OC)c3ccc4c(c3)OCCO4)n2)c1` [Compound 446, N4-(3,4-Ethylenedioxyphenyl)-5-fluoro-N4-(methoxycarbonylmethyl)-N2-[3-(N-methylamino)carbonylmethyleneoxyphenyl]-2,4-pyrimidinediamine]: the IC50 was < 10 µM in test [1] (setting [5]) and > 10 µM in test [2] (CHMC low cell density).
Taken in the same sequence, the figures for `CNC(=O)c1cc(Nc2ncc(F)c(N(C)c3ccc4c(c3)OCCO4)n2)ccc1Cl` [Compound 453, N2-[4-Chloro-3-(N-methylamino)carbonylphenyl]-N4-(3,4-ethylenedioxyphenyl)-5-fluoro-N4-methyl-4-pyrimidinediamine] were < 10 µM and > 10 µM.
Consider `CN(C)c1ncc(F)c(N(C)c2ccc3c(c2)OCCO3)n1` [Compound 462, N2-Dimethyl-N4-(3,4-ethylenedioxyphenyl)-5-fluoro-N4-methyl-2,4-pyrimidinediamine], for which the IC50 in test [1] (setting [5]) and in test [2] (CHMC low cell density) was > 10 µM each time.
Turning to `CNS(=O)(=O)c1ccc(Nc2ncc(F)c(Nc3ccc4c(c3)NC(=O)C(C)(C)O4)n2)cc1OC` [Compound 496, N4-(2,2-Dimethyl-3-oxo-4H-benz[1,4]oxazin-6-yl)-5-fluoro-N2-[3-methoxyphenyl-4-(methylamino)sulfonyl]-2,4-pyrimidinediamine], the IC50 in test [1] (setting [5]), in test [1] (setting [6]) and in test [2] (CHMC low cell density) was < 10 µM in each case.
Take `CNC(=O)COc1c(C)cc(Nc2ncc(F)c(N(C)c3ccc4c(c3)OCCO4)n2)cc1C` [Compound 635, N2-[3,5-Dimethyl-4-(N-methylamino)carbonylmethyleneoxyphenyl]-N4-(3,4-ethylenedioxyphenyl)-5-fluoro-N4-methyl-2,4-pyrimidinediamine]: the IC50 in test [1] (setting [5]), in test [1] (setting [6]) and in test [2] (CHMC low cell density) was < 10 µM each time.
Take `CNC(=O)COc1c(C)cc(Nc2ncc(F)c(N(C)c3ccc4c(c3)OC(F)(F)C(F)(F)O4)n2)cc1C` [Compound 636, N2-[3,5-Dimethyl-4-(N-methylamino)carbonylmethyleneoxyphenyl]-5-fluoro-N4-methyl-N4-[3,4-(tetrafluoroethylenedioxy)phenyl]-2,4-pyrimidinediamine]: the IC50 in test [1] (setting [5]), in test [1] (setting [6]) and in test [2] (CHMC low cell density) was < 10 µM in each case.
On to `CNC(=O)COc1c(C)cc(Nc2ncc(F)c(Nc3ccc4c(c3)OC(F)(F)C(F)(F)O4)n2)cc1C` [Compound 637, N2-[3,5-Dimethyl-4-(N-methylamino)carbonylmethyleneoxyphenyl]-5-fluoro-N4-[3,4-(tetrafluoroethylenedioxy)phenyl]-2,4-pyrimidinediamine], for which the IC50 in test [1] (setting [5]) was < 10 µM; in test [2] (CHMC low cell density), > 10 µM.
Regarding `COC(=O)Cn1ccc2ccc(Nc3ncc(F)c(Nc4ccc5c(c4)NC(=O)C(C)(C)O5)n3)cc21` [Compound 639, N4-(2,2-Dimethyl-3-oxo-4H-benz[1,4]oxazin-6-yl)-5-fluoro-N2-[1-(methoxycarbonylmethylene)indol-6-yl]-2,4-pyrimidinediamine], the IC50 was < 10 µM in test [1] (setting [5]), < 10 µM in test [1] (setting [6]) and > 10 µM in test [2] (CHMC low cell density).
